In a melting point compilation (Tetko et al.; mined from patent text by program, amines drawn as free bases though some values may be those of a salt):

SMILES | melting point [°C]
O=C(Nc1ccc(C(=O)N2CCc3nc(-c4ccccn4)[nH]c3-c3ccccc32)cc1)c1ccccc1-c1ccccc1 | 240 to 242
COC(=O)CS(=O)(=O)CCCCN(c1cnc(-c2ccccc2)c(-c2ccccc2)n1)C(C)C | 123 to 125
O=C(O)C=CCNCS(=O)(=O)c1ccc([N+](=O)[O-])cc1[N+](=O)[O-] | 174
CCOC(=O)N1Cc2ccccc2P1(C)=O (centres undefined) | 102 to 104
Cn1c(=O)sc2ccc(Cl)cc21 | 106 to 108
COc1c(Nc2ncc(Cl)c(Nc3ccccc3S(=O)(=O)N(C)C)n2)ccc2c1CC(N1CCOCC1)CCC2 (centres undefined) | 92 to 104
CCCc1nn(-c2ccc(C(F)(F)F)cn2)cc1COc1cccc(CC(=O)O)c1 | 77 to 78
CC12CCC(Oc3c(F)c(F)c(C(F)(F)F)c(F)c3F)=CC1=CCC1C2CCC2(C)C(c3cccnc3)=CCC12 (centres undefined) | 166
O=S(=O)(c1ccc(Cl)cc1)C(c1ccncc1)c1cc(F)ccc1F (centres undefined) | 126 to 127
N#Cc1ccc(Oc2ccc(F)cc2)nc1 | 120 to 121
O=C(NC(CCCl)c1ccccc1Br)c1c(F)cccc1F (centres undefined) | 183 to 185
O=C(c1cccs1)c1cnn2c(-c3cccc(NC(=O)C4CCCCC4)c3)ccnc12 | 239 to 240
CCN1c2ncc(Cc3cccc(O)c3)cc2C(=O)N(C)c2ccc(Cl)nc21 | 219 to 220
CC(C)(C)N1C(=O)c2cnc(-c3ccccc3)nc2N(C(=O)CN2CCCCC2)c2ccccc21 | 193 to 194
OC1Sc2ccccc2-c2ccccc21 (centres undefined) | 83 to 86
CCCOc1ccc(-n2c(C(F)(F)F)nn(C)c2=S)cc1 | 68 to 70
O=c1oc(-c2ccccc2)nc2ccc(Br)cc12 | 199 to 201
COc1ccc(OC)c2[nH]c(-c3ccc(Cl)cc3)nc12 | 274 to 276
Cc1nccc(N2CCC(O)(CN3CCN(C(=O)c4ccc(F)cc4)CC3)CC2)n1 | 114 to 117
CC(C)(C)c1cc(-c2cc(-c3ccc(C(=O)O)cc3)ccc2OCCO)ccc1N1CCCC1 | 223
O=c1[nH]c2ccc3c(c2[nH]1)OC(CO)CC3 (centres undefined) | 240
Cc1nc(NC(CO)C(C)SCc2ccccc2)c2nc(-c3ccccc3)cc-2[nH]1 (centres undefined) | 220 to 222
CC(NC(=O)C(O)c1cc(F)cc(F)c1)C(=O)Nc1ccc2c(c1)NC(=O)Cc1cccn1-2 (centres undefined) | 239 to 240
FC(F)(F)c1ccc(OC2CCCCO2)c(Sc2ccccc2)c1 (centres undefined) | 72 to 73

SMILES | melting point [°C]
CN1CCN(c2ccc(Nc3ncc4c(n3)S/C(=C/c3ccc([N+](=O)[O-])cc3)C(=O)N4)cc2)CC1 | 276 to 279
CC(COc1ccc(N2N=C3c4ccccc4SCC3CC2=O)cc1)N(C)C (centres undefined) | 171 to 173
CCC(Cc1ccc(OC)c(CC(=O)Nc2ccc(C(F)(F)F)cc2)c1)C(=O)O (centres undefined) | 136 to 137
FC(F)(F)c1cccc(-c2[nH]c(C3CCNCC3)cc2-c2ccncc2)c1 | 106 to 112
CCOC(=O)COc1ccc(C2=CC(=O)CCC2CC)c(Cl)c1Cl (centres undefined) | 110 to 112
O=C(C=Cc1cccc(F)c1)C=Cc1cccc(F)c1 | 96 to 97
Cc1cc(C)c(C(=O)c2cc(C(C)(C)C)c(O)c(C(C)(C)C)c2)c(Cl)n1 | 109 to 110
N#CCC(=O)Nc1ccc(-n2nc(C(F)(F)F)cc2C(F)(F)F)cc1 | 140 to 143
CC1(C(=O)O)CCc2cc(O)c(C(C)(C)C)cc2O1 (centres undefined) | 218 to 221
COc1cc(CCNC(=O)C(F)(F)F)ccc1N | 80 to 81
CCOC(=O)c1cnn2c1c(NC1CC1)nc1ccccc12 | 167 to 169
COc1cc(OC)c2c(=O)[nH]c(-c3cc(C)c(CCCN4CCCC4)c(C)c3)nc2c1 | 194 to 196
O=C(NN=Cc1c(O)ccc2ccccc12)c1ccccc1O | 265
O=C(NC(=O)c1c(F)cccc1F)Nc1cc(Br)c(Br)cc1C(F)(F)F | 203
CC(C)(C)c1noc(NS(=O)(=O)c2ccccc2)c1Br | 108 to 109
Cc1noc(NS(=O)(=O)c2ccsc2C(=O)c2ccc3c(c2)OCO3)c1Br | 47 to 49
NS(=O)(=O)c1nc2cc(O)ccc2s1 | 224
CCCCCCCCCCCCCCOc1ccc(CC(=O)Nc2cccc(I)c2)cc1 | 108 to 110
Clc1ccc(CN2CC=C(C=Cc3ccsc3)CC2)cc1 | 125 to 127
CCCCCCOc1ccc2cc(C(C)C(=O)O)ccc2c1 (centres undefined) | 88 to 91
CN1CC(OCC=C(Cl)Cl)(C(F)(F)F)c2cc(Cl)ccc2NC1=O (centres undefined) | 149 to 150
O=C(CN1CS(=O)(=O)CC1=O)N1CCN(C(c2ccccc2)c2ccccc2)CC1 | 209 to 211
CC(=O)C(C#N)=Cc1ccccc1 | 83 to 84
CCCCCN(C(=O)Nc1ccc(C(=O)O)cc1)c1ccc2c(c1)C(C)(C)CCC2(C)C | 184 to 186

SMILES | melting point [°C]
O=S(=O)(Nc1cnc(-n2ccnc2)nc1NCc1ccc2c(c1)OCO2)c1ccc(Cl)cc1 | 206 to 207
c1ccc(-c2ccc(-c3nc(COc4ccc(CCCn5ccnc5)cc4)co3)s2)cc1 | 128 to 129
COC(=O)c1cccc(C(=O)Nc2cccc3cc(Br)cnc23)c1 | 157
Cc1cccc(C(=O)NC(NC(=NC#N)Nc2cccnc2)C(C)(Cl)Cl)c1 (centres undefined) | 171 to 172
CC1CCc2c(-c3ccccc3)nc(=O)n(C(C)C)c2C1 (centres undefined) | 150 to 153
COc1cc2c(cc1Br)CC=C2CCNC(C)=O | 146 to 148
CC(=O)Nc1c(S(N)(=O)=O)cc(C(=O)O)c(Nc2ccccc2)c1NCc1ccco1 | 250
CCn1c(-c2ccnc(N)c2)nnc1C(C)(C)Oc1c(F)cc(Cl)cc1F | 150
CC(C)(C)c1cc(-c2nn(CCC(N)=O)c3ncccc23)cc(C(C)(C)C)c1O | 154 to 157
CCCC(=O)c1cnc2ccsc2c1Nc1ccccc1C | 114 to 116
O=C1CCC(c2ccccc2)(c2ccccc2)[C@@H]2CN(C(=O)Cc3ccsc3)C[C@H]12 (racemic) | 224
CCOC(=O)c1cc(OC)c(OCCOC)cc1[N+](=O)[O-] | 68 to 69
COC(=O)N(C(S)=NC(C)C)c1c(C(C)C)cccc1C(C)C | 98 to 99
CCCOc1ccccc1-c1ccc(-c2nnn[nH]2)c(=O)[nH]1 | 229 to 231
O=C1C=C(c2ccc(Cl)c(Cl)c2)C(=O)N1Nc1ccccc1 | 208 to 210
O=C1NC(Cc2cccs2)C(=O)NC1Cc1ccc(OCc2ccccc2)cn1 (centres undefined) | 201 to 203
Cc1cccc(NC(=O)NC2N=C(c3ccccc3F)c3ccccc3N(Cc3nc4ccccc4[nH]3)C2=O)c1 (racemic) | 165 to 167
O=C(O)CN(CCc1ccccc1)C(=O)[C@@H]1C[C@@H](S)CN1S(=O)(=O)c1ccc2ccccc2c1 | 198 to 200
CC(CCC(F)(F)C(C)(C)O)C1CCC2C3CCC4CC(O)CCC4(C)C3CCC12C (centres undefined) | 142
O=C(Nc1ccc(S(=O)(=O)F)cc1)c1cc(Cl)ccc1[N+](=O)[O-] | 182 to 184
OCCN1CCC(=C2c3sccc3CCn3ncnc32)CC1 | 150
c1ccc(CN2CCN(Cc3ccccc3)[C@@H](CCc3cccnc3)C2)cc1 | 94 to 95.5
COC(=O)COc1ccsc1-c1nsc2ccc(-n3c(=O)cc(C(F)(F)F)n(C)c3=O)cc12 | 73 to 79
Clc1nccnc1Oc1ccc2c(c1)OCO2 | 87 to 88

SMILES | melting point [°C]
COc1cc(C(=O)N2Cc3ccc(C(=O)NCc4ccc5c(c4)OCO5)n3Cc3ccccc32)ccc1-c1ccccc1C | 167 to 168
CC(=O)Nc1ccc2oc([N+](=O)[O-])c(-c3ccccc3)c2c1 | 204 to 207
Cc1c(NC(=O)c2ccc(-c3ccc4c(c3)OCO4)cc2F)ccc2cc(CN3CCCC3)cnc12 | 181 to 182
O=c1[nH]c2cc(Cl)ccc2c(CCc2nnn[nH]2)c1-c1ccccc1 | 231 to 233
O=C1NC(Cc2ccc(OCc3ccccc3)cn2)C(=O)NC1Cc1ccc(OCc2ccccc2)cc1 (centres undefined) | 200 to 202
CP1(=O)c2ccccc2CN1c1ccc(Oc2ccccc2)cc1 (centres undefined) | 176 to 177
Cc1cc(Nc2ccccc2C(=O)O)n(-c2ccccn2)n1 | 190 to 193
COC(=O)CSc1cc(=O)n(C)c(=O)n1C | 96 to 97.5
CN1CCCC1c1ccc(Nc2cc(-c3cc(F)cc(N4CCc5c(sc6c5CCCC6)C4=O)c3CO)cn(C)c2=O)nc1 (centres undefined) | 164 to 166
COC(=O)c1cc(NC(=O)Nc2ccccc2)ccn1 | 206 to 208
CCCCc1nc2ncccc2[nH]1 | 80
CC(C)(C)c1ccc2occ(N)c(=S)c2c1 | 168
COc1ccc(CNc2ncnc(Cl)c2N)cc1 | 187 to 188
CC(C)(C)OC(=O)C=Cc1ccc(NC(=O)C=C2CC(C(=O)OCc3ccccc3)Nc3cc(Cl)cc(Cl)c32)cc1 (racemic) | 85
COc1ccc2c(c1)c(CC(=O)N(C(=O)NC1CCCCC1)C1CCCCC1)c(C)n2-c1ncnc2cc(Cl)ccc12 | 105 to 107
CCCCCS(=O)(=O)NC(=O)/C=C/c1ccc(OCC(O)COC(C)C)cc1Oc1ncc(C(F)(F)F)cc1Cl (centres undefined) | 86 to 88
O=C1CCC(N2Cc3c(OCc4ccc(CN5CCN(CC6CC6)CC5)cc4)cccc3C2=O)C(=O)N1 (centres undefined) | 176 to 178
COC(=O)[C@@]1(C)Cc2c([nH]c3ccc(OC)cc23)[C@@H](c2cccc(O)c2)N1 (racemic) | 175 to 177
CCCc1nc2cc(C)c(NC(=O)c3cc(C(F)(F)F)nn3-c3ncccc3Cl)c(C(=O)NC(C)C)c2cc1CC | 213 to 220
CC(C)c1cnn2c(O)cc(O)nc12 | 242 to 243
CCn1cc(C(=O)O)c(=O)c2cc(F)c(N3CCC(CNC4CC4)C3)nc21 (centres undefined) | 271 to 274
CCN(c1ccc(Cl)cc1C(N)=O)S(=O)(=O)c1ccc(C)cc1 | 148 to 150
